{
  "source": "patent US20230331739A1",
  "about": "“INDOLO HEPTAMYL OXIME ANALOG CRYSTAL AS PARP INHIBITOR AND METHOD FOR PREPARING SAME” (CHIA TAI TIANQING PHARMACEUTICAL GROUP CO., LTD., priority 2020, published 2023)",
  "key": {"[1]": {"assay": "Metabolic stability in liver microsomes, rat", "type": "in vitro ADME", "conditions": "1 μM, 0.5 mg/mL", "description": "(§1) Objective: To test the metabolic stability of the test compound in liver microsomes of three species.\n(§2) Procedures: 1 μM test compound and microsomes (0.5 mg/mL) were incubated at 37° C. in the presence of an NADPH regeneration system. Positive controls were testosterone ([…]), propylamine propiophenone (2D6 substrate) and diclofenac (2C9 substrate). At 37° C., positive controls were incubated with microsomes (0.5 mg/mL) in the presence of an NADPH regeneration system. The reaction was stopped by direct mixing of the sample with cold acetonitrile containing an internal standard at various time points (0, 5, 10, 20, 30 and 60 min). The compound and microsomes were incubated for 60 min in the absence of an NADPH regeneration system. One replicate (n=1) was set at each time point. The samples were analyzed by LC/MS/MS; the concentration of the compound was characterized by the ratio of the analyte peak area to the internal standard peak area."}, "[2]": {"tested_on": "MDA-MB-231 cells with wild-type BRCA", "assay": "Anti-proliferation study on MDA-MB-231 cells (CellTiter-Glo)", "type": "cell-based", "conditions": "Homo sapiens, MDA-MB-231, 72 h; 3 days incubation", "description": "Materials: test compounds; R DMEM medium; fetal bovine serum; penicillin/streptomycin antibiotic; MDA-MB-231 cells; Envision Multimode Plate Reader.\nMDA-MB-231 cells were seeded in a white 96-well plate by adding 80 μL of cell suspension (containing 5000 MDA-MB-231 cells) to each well. The cell plate was incubated in a CO2 incubator overnight.\nEight concentrations were set for each compound. The test compounds were serially 3-fold diluted to the 8th concentration with a multichannel pipette, i.e., from 2 mM to 920 nM, in duplicate. 78 μL of medium was added to an intermediate plate, and the serially diluted compound was transferred to the intermediate plate at 2 μL per well. After being mixed well, the mixture was transferred to the cell plate at 20 μL per well. […] Another cell plate was provided for reading signal values on the day of compound addition and these signal values were used as Max values in data analysis. Promega CellTiter-Glo was added to the cell plate at 25 μL per well and the luminescence signals were stabilized by incubation for 10 min at room temperature. Readings were taken using a PerkinElmer Envision Multimode Plate Reader.\nPromega CellTiter-Glo was added to the cell plate at 25 μL per well and the luminescence signals were stabilized by incubation for 10 min at room temperature. Readings were taken using a PerkinElmer Envision Multimode Plate Reader. […]"}, "[3]": {"assay": "Metabolic stability in liver microsomes, mouse", "type": "in vitro ADME", "conditions": "1 μM, 0.5 mg/mL", "description": "as §1, §2"}, "PARP1": {"target": "PARP1 (Homo sapiens (Human), UniProt P09874)", "sequence (P09874 whole entry)": "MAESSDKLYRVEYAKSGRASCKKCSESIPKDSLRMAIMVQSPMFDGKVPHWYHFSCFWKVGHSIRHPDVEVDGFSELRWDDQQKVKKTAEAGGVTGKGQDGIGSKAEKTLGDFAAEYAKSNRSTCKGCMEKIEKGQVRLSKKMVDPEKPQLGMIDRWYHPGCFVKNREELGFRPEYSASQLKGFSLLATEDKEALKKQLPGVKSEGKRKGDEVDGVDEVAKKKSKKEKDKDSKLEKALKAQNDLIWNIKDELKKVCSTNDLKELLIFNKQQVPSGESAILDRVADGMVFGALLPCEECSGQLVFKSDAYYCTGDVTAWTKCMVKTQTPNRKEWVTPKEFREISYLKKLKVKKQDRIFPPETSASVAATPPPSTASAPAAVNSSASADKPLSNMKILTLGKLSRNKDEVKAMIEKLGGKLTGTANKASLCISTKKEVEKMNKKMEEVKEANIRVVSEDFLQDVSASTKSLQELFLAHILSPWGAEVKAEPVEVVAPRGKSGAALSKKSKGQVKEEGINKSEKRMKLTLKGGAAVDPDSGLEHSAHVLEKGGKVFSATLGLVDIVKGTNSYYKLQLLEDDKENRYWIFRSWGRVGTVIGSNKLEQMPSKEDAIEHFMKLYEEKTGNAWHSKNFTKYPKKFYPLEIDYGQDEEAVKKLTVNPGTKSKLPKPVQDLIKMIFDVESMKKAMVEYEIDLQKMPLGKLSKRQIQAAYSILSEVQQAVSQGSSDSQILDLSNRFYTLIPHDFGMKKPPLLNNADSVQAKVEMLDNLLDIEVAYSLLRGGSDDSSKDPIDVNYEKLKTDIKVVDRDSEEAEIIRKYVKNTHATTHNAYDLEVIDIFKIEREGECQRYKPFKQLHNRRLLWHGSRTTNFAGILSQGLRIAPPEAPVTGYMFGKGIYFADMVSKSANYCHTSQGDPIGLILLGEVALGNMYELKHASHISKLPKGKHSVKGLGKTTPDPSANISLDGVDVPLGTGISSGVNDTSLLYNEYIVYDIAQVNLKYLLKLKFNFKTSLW", "assay": "PARP-1 enzymatic assay (HT Universal Chemiluminescent PARP Assay kit)", "type": "biochemical", "description": "Materials: test compounds; HT Universal Chemiluminescent PARP Assay kit (purchased from TREVIGEN); PBS (phosphate buffer saline, purchased from Wisent); Triton X-100 (purchased from Macklin); Envision Multimode Plate Reader (PerkinElmer).\n1. Washing solution: Triton X-100 was added to 1×PBS with a final concentration of Triton X-100 of 0.1%.\n2. 1×PARP buffer: The 20×PARP buffer in the kit was 20-fold diluted with water to prepare a 1×PARP buffer, which was used to prepare the compounds, enzyme solutions and substrate solutions.\n3. 1×Strep-Diluent solution: The 10×Strep-diluent in the kit was 10-fold diluted with water to prepare a 1×Strep-diluent solution.\nThe test compounds were diluted from 200 μM to 2.56 nM. The DMSO concentration was 100%. 2 μL of each of the inhibitors at various concentration gradients was added to a compound intermediate plate, and 38 μL of the 1×PARP buffer was then added. The two were mixed well for use, and the DMSO concentration was 5% at this time.\na) The 1×PARP buffer was added to a test plate at 50 μL per well, and the test plate was incubated at 25° C. for 30 min. […]\nPeroxyGlow A and B in the kit were mixed at a ratio of 1:1, and the mixed solution was added to the test plate at 100 μL per well. Chemiluminescence was immediately read using a PerkinElmer Envision Multimode Plate Reader with an integration time of 0.5 s. […]"}},
  "data": [
    {"smiles": "C[C@]1(c2ccc(-c3[nH]c4cc(F)cc5c4c3CONC5=O)cc2)CCCN1", "note": "[Compound 1]", "values": [
      {"measurement": "Residual content after 60 min of incubation", "setting": "[1]", "result": 31.8, "unit": "%"},
      {"measurement": "IC50", "setting": "[2]", "result": "> 10000", "unit": "nM"},
      {"measurement": "Residual content after 60 min of incubation", "setting": "[3]", "result": 40.7, "unit": "%"},
      {"measurement": "IC50", "setting": "PARP1", "result": 2.3, "unit": "nM"}
    ]}
  ]
}
